Literature values, collected in patent publication US12490952B2, “Combined sub-iliopsoas and subpectineal blocks—for hip surgery” (National Guard Health Affairs, priority 2020, dated 2025).

Conditions: local anesthetic, general background statement

CCN(CC)CCOC(=O)c1ccc(N)cc1Cl [Chloroprocaine]
duration of action (short-acting / intermediate duration): 45 to 90 min
